The subject of assay [1] is HIV-1. Further details: method as in http://dtp.nci.nih.gov, [7]. The settings on record: ref http://dtp.nci.nih.gov, [7]; cited from earlier work.
Assay [2] has as its target T1, HIV-1 IN (Human immunodeficiency virus type 1 group M subtype B, UniProt P12497).
T1 construct: 250 nM of recombinant HIV-1 integrase; made in house; host or cells: E. coli RosettaII
Nature of the assay: Synergy test with the active site inhibitor MK-2048. It is filed as biochemical. Particulars: subinhibitory dose of stilbene disulfonic acid derivative; IC50 of MK-2048 not affected; data not shown.

In assay [3] the target is T2, HIV-1 integrase (Human immunodeficiency virus type 1 group M subtype B, UniProt P12497).
T2 construct: 250 nM of recombinant HIV-1 integrase; made in house; host or cells: E. coli RosettaII
Nature of the assay: Electrochemiluminescent integrase strand transfer assay (BioVeris), high-throughput screen. Particulars: single dose 10 µM; read-out: inhibition of IN ST activity. In kind it is biochemical. The procedure:
To enable a high-throughput screening, we used the ST assay developed by BioVeris. This proprietary plate-based assay measured stand transfer using electrochemiluminescent technology. First, we validated the assay using HIV-1 IN in the presence of DMSO, or increasing concentrations of a known inhibitor, MA-DKA (also known as 118-D-24, Figure 1A). […] Next, we used MA-DKA as a control in every test plate and screened a large library of molecules. Overall, 3095 compounds were tested as part of the NCI Developmental Therapeutics Program’s small molecule plated sets from the Open Chemical Repository Collection. […] A single dose testing (10 µM) enabled the identification of 130 molecules that inhibited ST by over 50% (light dashed line, Figure 1A). […] NSC153308 is a 2-phenacylsulfanylacetic acid that resembles the diketo acid chemotype. On the other side, NSC119889 is a xanthene derivative similar to V-165 [6]. […] However, the purpose of this study was to identify a new chemotype that might act on IN via a novel mechanism, distinct from known active site inhibitors. Accordingly, we retrieved the chemical structure of the 130 hits and looked for a chemical pattern different from that of conventional strand transfer inhibitors.
This electrochemiluminescent plate-based assay was performed using a BioVeris M-SERIES Analyzer (Gaithersburg, MD, USA). DNA substrates were obtained from BioVeris and used according to the manufacturer’s recommendations. Briefly, a biotinylated donor DNA was incubated for 30 min at 37 °C in the presence of 250 nM of recombinant HIV-1 integrase. Complexes were bound to paramagnetic streptavidin-coated beads (M-280 Dynabeads). After addition of the drug, the integration reaction was initiated by addition of a ruthenium-labeled target DNA. The reaction was carried out for 60 min at 37 °C, before reading on the BioVeris M-SERIES Analyzer.

Assay [4] deals with T3, HIV-1 IN mutant N155H (Human immunodeficiency virus type 1 group M subtype B, UniProt P12497, N1302H).
T3 construct: RAL-resistant HIV-1 mutant integrases; made in house; host or cells: E. coli RosettaII
The experiment in a line: biochemical. In kind it is biochemical. The procedure:
(§1) IN reactions were carried out by adding drugs or an equivalent volume of 100% DMSO (dimethyl sulfoxide, used as the drug solvent) to a mixture of 20 nM duplex DNA (21T/21B) and 400 nM IN in 50 mM MOPS pH 7.2, 7.5 mM MgCl2, and 14 mM 2-mercaptoethanol. Reactions were performed at 37 °C for 2 h and quenched by addition of an equal volume of loading buffer [formamide containing 1% SDS (sodium dodecyl sulfate), 0.25% bromophenol blue, and xylene cyanol]. Reaction products were separated in 16% polyacrylamide denaturing sequencing gels. Dried gels were visualized using a Typhoon 8600 (GE Healthcare, Piscataway, NJ, USA). Densitometric analyses were performed using the ImageQuant 5.1 software from GE Healthcare. Data analyses (linear regression, IC50 determination, and standard deviation) were performed using Prism 6.05 software from GraphPad.

The target in assay [5] is T4, HIV-1 IN mutant G140S/Q148H (Human immunodeficiency virus type 1 group M subtype B, UniProt P12497, G1287S/Q1295H).
T4 construct: RAL-resistant HIV-1 mutant integrases; made in house; host or cells: E. coli RosettaII
Nature of the assay: Gel-based IN strand transfer assay, G140S/Q148H mutant. In kind it is biochemical. The procedure:
as §1

Assay [6] relates to VSV pseudo-typed HIV-1 virus particles. The experiment in a line: organism not typed. It is filed as cell-based.
Assay [7] deals with T5, full-length IN (Human immunodeficiency virus type 1 group M subtype B, UniProt P12497).
T5 construct: using full-length IN (1–288), the isolated catalytic core domain (CCD) (51–212); made in house; host or cells: E. coli RosettaII
Nature of the assay: Disintegration reaction, full-length IN. In kind it is biochemical, HIV-1. Particulars: branched substrate. The text has this:
Conventional IN strand transfer inhibitors bind at the interface created by the protein, viral DNA, and two magnesium cations in the catalytic site of the enzyme. Because stilbene disulfonic acid derivatives inhibit both 3′-P and ST with a similar efficiency, they may act outside the IN catalytic site. To determine if IN domains other than the catalytic core domain (CCD) are involved in the inhibitory activity of NSC34931, we tested this compound on disintegration, the only IN-mediated reaction that can be catalyzed by the isolated CCD. Disintegration is equivalent to a reverse-ST reaction (Figure 3A). Using a branched substrate, the WT enzyme as well as the isolated CCD catalyzed disintegration with similar efficiency (Figure 3B). NSC34931 inhibited disintegration catalyzed by the full-length IN at concentrations above 4.1 µM (Figure 3B,C). However, NSC34931 was unable to inhibit disintegration catalyzed by the CCD at concentrations up to 37 µM (Figure 3B,C). These experiments indicate that the N-terminal domain (NTD) and/or the C-terminal domain (CTD) are essential for IN inhibition by NSC34931.
Figure 3 Inhibition of the disintegration reaction by NSC34931. (A) Schematic representation of the disintegration reaction. […]

With `O=S(=O)(O)c1cc(/N=N/c2cc(S(=O)(=O)O)c3ccccc3c2O)ccc1/C=C/c1ccc(/N=N/c2cc(S(=O)(=O)O)c3ccccc3c2O)cc1S(=O)(=O)O` [NSC34931], in assay [1], the “antiviral activity in HIV-1 cytopathic assay” value is “antiviral”. For the same compound, the “synergy with active site inhibitor MK-2048” value in assay [2] is “could not see any cooperative effect”. Also, the inhibition – broadly, the change of the read-out against control, counted positive when it falls – at 10 µM in assay [3] was determined as 77.8%. Also, the IC50 (as a rule, the concentration at which inhibition is half-maximal) in assay [4] is 160 nM; in assay [5], 120 nM. For the same compound, the “Selectivity Index SI” value in assay [6] was determined as 19.2. The EC50 (commonly the concentration at which the effect is half-maximal) in assay [6] (read-out: Ex Vivo Antiviral Activity EC50) was found to be 3070 nM. In addition, the concentrations inhibiting disintegration result in assay [7] is reported as “above 4.1 µM”.
